Legend:
Test in all cases: relative viability (nuclei count vs DMSO), 5 days (fraction); higher = more cells survive
[1] = compound: CN1CCN(c2ccc3nc(-c4c(N)c5c(F)cccc5[nH]c4=O)[nH]c3c2)CC1 [Dovitinib]
Summary of the method: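 Viability was read as treated-well nuclei divided by vehicle-well nuclei, using the median across plates. Lung cancer cell lines in 1536-well plates were kept overnight at 37 °C, pinned with five √10-spaced library-drug doses, and after 5 days were Hoechst-stained, imaged at 4× and counted in MetaXpress. Plates passed only with control CV below 25% and at least one doubling.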

[2] = compound: CN1CCN(c2ccc3nc(-c4c(N)c5c(F)cccc5[nH]c4=O)[nH]c3c2)CC1 [Dovitinib] + N=C(N)NC(=N)NCCc1ccccc1 [Phenformin] (partner 250 µM)
Summary of the method: (§1)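 Dosing by pin tool came one day after lung cancer cell lines were seeded in 1536-well plates, using either one drug or a fixed anchor-drug dose plus five library-drug doses (not always all listed) in √10 steps. After 5 days, nuclei were counted on 4× images. Relative viability is treated-well nuclei count divided by vehicle-well nuclei count, and values are medians of duplicate plates.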

[3] = compound: CN1CCN(c2ccc3nc(-c4c(N)c5c(F)cccc5[nH]c4=O)[nH]c3c2)CC1 [Dovitinib] + COc1cccc2cc(-c3nc([C@H]4CC[C@H](C(=O)O)CC4)n4ncnc(N)c34)[nH]c12 [OSI-027] (partner 0.5 µM)
Summary of the method: as §1

[4] = compound: CN1CCN(c2ccc3nc(-c4c(N)c5c(F)cccc5[nH]c4=O)[nH]c3c2)CC1 [Dovitinib] + CC(=O)Nc1cccc(-n2c(=O)n(C3CC3)c(=O)c3c(Nc4ccc(I)cc4F)n(C)c(=O)c(C)c32)c1 [Trametinib] (partner 0.02 µM)
Summary of the method: as §1

| Cell Line | relative viability ([1]; 0.02 µM) | relative viability ([1]; 0.06325 µM) | relative viability ([1]; 0.2 µM) | relative viability ([1]; 0.6325 µM) | relative viability ([1]; 2 µM) | relative viability ([2]; first compound 0.02 µM) | relative viability ([2]; first compound 0.06325 µM) | relative viability ([2]; first compound 0.2 µM) | relative viability ([2]; first compound 0.6325 µM) | relative viability ([2]; first compound 2 µM) | relative viability ([3]; first compound 0.02 µM) | relative viability ([3]; first compound 0.06325 µM) | relative viability ([3]; first compound 0.2 µM) | relative viability ([3]; first compound 0.6325 µM) | relative viability ([3]; first compound 2 µM) | relative viability ([4]; first compound 0.02 µM) | relative viability ([4]; first compound 0.06325 µM) | relative viability ([4]; first compound 0.2 µM) | relative viability ([4]; first compound 0.6325 µM) | relative viability ([4]; first compound 2 µM) |
| --- | --- | --- | --- | --- | --- | --- | --- | --- | --- | --- | --- | --- | --- | --- | --- | --- | --- | --- | --- | --- |
| LOU-NH91 | 1.02 | 0.945 | 0.939 | 1.07 | 0.984 | 0.826 | 0.666 | 0.748 | 0.785 | 0.775 | 0.786 | 0.662 | 0.731 | 0.817 | 0.721 | 0.81 | 0.784 | 0.798 | 0.82 | 0.815 |
| LU99A | 0.911 | 0.944 | 0.971 | 0.97 | 1.04 | 0.814 | 0.811 | 0.926 | 0.86 | 0.864 | 0.257 | 0.283 | 0.327 | 0.3 | 0.316 | 0.534 | 0.505 | 0.541 | 0.481 | 0.557 |
| LXF-289 | 0.938 | 1.01 | 0.999 | 1.02 | 0.979 | 0.514 | 0.532 | 0.551 | 0.513 | 0.537 | 0.771 | 0.813 | 0.952 | 0.873 | 0.744 | 0.619 | 0.716 | 0.695 | 0.612 | 0.662 |
| NCI-H23 | 1.01 | 1.03 | 1.07 | 1.02 | 0.952 | 0.888 | 0.843 | 0.746 | 0.737 | 0.754 | 0.486 | 0.599 | 0.665 | 0.605 | 0.534 | 0.391 | 0.446 | 0.376 | 0.4 | 0.378 |
| NCI-H322M | 0.885 | 0.926 | 0.918 | 0.977 | 0.97 | 0.685 | 0.737 | 0.811 | 0.751 | 0.815 | 0.518 | 0.526 | 0.557 | 0.502 | 0.608 | 0.557 | 0.506 | 0.507 | 0.496 | 0.543 |
| NCI-H358 | 0.9 | 0.995 | 0.918 | 0.989 | 0.907 | 0.291 | 0.357 | 0.408 | 0.317 | 0.319 | 0.703 | 0.769 | 0.905 | 0.819 | 0.739 | 0.156 | 0.144 | 0.154 | 0.19 | 0.143 |
| NCI-H1299 | 0.966 | 1.03 | 1.03 | 0.98 | 1.03 | – | – | – | – | – | – | – | – | – | – | – | – | – | – | – |
| NCI-H1563 | 1.01 | 1.07 | 0.97 | 1.05 | 1.08 | 0.591 | 0.669 | 0.665 | 0.656 | 0.664 | 0.825 | 0.797 | 0.827 | 0.758 | 0.785 | – | – | – | – | – |
| NCI-H1648 | 0.914 | 0.805 | 1.12 | 0.908 | 0.789 | – | – | – | – | – | 0.236 | 0.251 | 0.291 | 0.307 | 0.252 | 0.581 | 0.413 | 0.471 | 0.477 | 0.527 |
| NCI-H1703 | 1.01 | 1.08 | 0.882 | 0.637 | 0.541 | – | – | – | – | – | – | – | – | – | – | – | – | – | – | – |

Source: the supplement of paper PMC10307832
